Common to all, as to test: NCI anticancer screen, dose series, 48 h
The subject of test [1] is A549 NSCLC.
The subject of test [2] is COLO 205 colon.
The subject of test [3] is KM12 colon.
For test [4], the system named is NCI-H460 lung.
Test [5] deals with NCI/ADR-RES ovarian.
In test [6] the test system is OVCAR-3 ovarian.
The subject of test [7] is OVCAR-8 ovarian.
For test [8], the system named is SF-268 CNS.
In test [9] the test system is SF-295 CNS.
Test [10] concerns SN12C renal.

Each structure is given as a SMILES string.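 Values below derive from 48-hour exposures of cells grown in 96-well plates, with endpoints linearly interpolated between the two concentrations bracketing the appropriate inhibition level. GI50 marks 50% less growth. The concentration for full growth arrest is given as TGI.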

With `COc1cccc2c1C(=O)c1c(O)c3c(c(O)c1C2=O)C[C@H](O)C[C@@H]3OC1CC(N)C(O)C(C)O1` (some centres undefined), the TGI in [1] stood at 14.1 µM; in test [2], 10.3 µM; in test [3] it was 10.1 µM; in test [4] it was 13.7 µM; in test [5], 62.3 µM; in test [6], 7.34 µM. In addition, the values for the TGI in test [7], in [8] and in test [9] were 3.64 µM, 10.6 µM and 7.35 µM, respectively.
As for `c1ccc2c(c1)Sc1nccc3ccnc-2c13`, the TGI in test [2] is over 100 µM; in [3] it was over 100 µM; in [4], 33.2 µM; in [5], over 100 µM; in test [6], over 100 µM; in test [7] it was over 100 µM. In addition, the TGI in test [8], in [9] and in test [10] was over 100 µM each time.
Regarding `CCC1=C(C(C)=O)[C@@H]2CCCCC[C@@H](C(=O)OC)C2C1=O` (some centres undefined), the TGI in test [1], in test [2], in test [3], in [4], in [7] and in test [8] was over 100 µM in each case. Further, the TGI in test [9] and in [10] was over 100 µM throughout.
For `Cc1cc(C)nc(NS(=O)(=O)c2ccc(Nc3c4ccccc4nc4c(C(=O)N5CCN(CCOS(C)(=O)=O)CC5)cccc34)cc2)n1`, the TGI in test [1], in [2], in test [3], in [4], in test [6] and in test [7] was over 100 µM throughout. Further, the TGI in test [8], in test [9] and in test [10] was over 100 µM in each case.
With `Cc1cc(C)c2c(=O)cc(-c3cccc(F)c3)[nH]c2n1`, the TGI in [1] is over 100 µM; in test [2] it was 0.354 µM; in test [3], 13.3 µM; in test [4], 2.45 µM; in test [6], 0.318 µM; in test [7] it was over 100 µM. Moreover, the values for the TGI in test [8], in test [9] and in test [10] were over 93.3 µM, 0.199 µM and 20.3 µM, respectively.
For `COc1ccccc1CN=C1Nc2ccncc2S(=O)(=O)N1c1ccccc1`, the TGI in [1], in [2], in test [3], in [4], in test [5] and in test [6] was over 100 µM in each case. The TGI in test [7], in [9] and in test [10] was over 100 µM in each case.
As for `CC(C)(C)OC(=O)NC(Cc1ccccc1)NC(=O)NC(=O)OCc1ccccc1` (centres undefined), the TGI in test [1], in test [3], in test [4], in test [5], in [6] and in [7] was over 100 µM each time. Further, the TGI in test [8], in test [9] and in [10] was over 100 µM throughout.
Consider `CC(=O)OCC1OC(n2c(-c3ccccc3)c(N=Nc3ccccc3)c(C)c(C#N)c2=S)C(OC(C)=O)C(OC(C)=O)C1OC(C)=O` (centres undefined), for which the TGI in test [1], in test [2], in [3], in test [4], in test [5] and in test [6] was over 100 µM throughout. In addition, the TGI in test [8], in test [9] and in [10] was over 100 µM throughout.
On to `CC1C(NNc2ccccc2)Oc2cc3c(cc2C1c1ccccc1O)OCO3` (centres undefined), for which the TGI is 15.2 µM in test [1]; 24.5 µM in [2]; 16.8 µM in [3]; 18.5 µM in [4]; 24.1 µM in test [6]; 86.8 µM in test [7]. Besides, the TGI in [8] is 32.6 µM; in test [9], 3.49 µM; in [10] it was 20.1 µM.
As to `O=C(CCc1cc(O)cc(O)c1)NCCCNC(=O)CCc1cc(O)cc(O)c1`, the TGI in test [1], in [2], in [3], in test [5], in test [6] and in test [7] was over 100 µM each time. Also, the TGI in test [8], in test [9] and in test [10] was over 100 µM throughout.
Take `Nc1nc(Cl)cc(NCC2(O)CC2)n1`: the TGI in test [1], in [3], in test [4], in test [5], in test [6] and in test [7] was over 100 µM throughout. Also, the TGI in [8], in test [9] and in test [10] was over 100 µM in each case.
For `CC(C)N1CC2CC(CN(C(=O)c3ccccc3)C2)C1`, the TGI in test [1], in test [2], in [3], in [4], in test [6] and in test [7] was over 100 µM in each case. Besides, the TGI in test [8], in test [9] and in test [10] was over 100 µM in each case.
Regarding `CC1CCC2(NC1)OC1CC3C4CC=C5CC(OC6OC(CO)C(OC7OC(C)C(O)C(O)C7O)C(O)C6OC6OC(C)C(O)C(O)C6O)CCC5(C)C4CCC3(C)C1C2C` (centres undefined), the TGI worked out at 9.59 µM in test [1]; 35.4 µM in test [2]; 9.17 µM in test [3]; 9.16 µM in test [4]; 4.09 µM in [6]; 8.31 µM in test [7]. Besides, the figures for the TGI in test [8], in test [9] and in test [10] were 4.05 µM, 3.94 µM and 4.83 µM, respectively.
For the compound `CCOc1ccc(Nc2nc(N)nc(N)c2N)cc1`, the TGI in [1] was over 100 µM; in test [2], 70.2 µM; in test [3], 73.5 µM; in test [4], 98 µM; in test [5], over 100 µM; in [6], over 100 µM. Besides, the TGI is over 100 µM in test [7], 31.1 µM in test [8] and 45.8 µM in [9].
As to `NCCCCNCCCNC(=O)c1nc(-c2nc(CCN)sc2Cl)sc1Cl`, the TGI in test [1], in test [2], in test [3], in [4], in [6] and in [7] was over 100 µM in each case. Besides, the TGI in test [8] was 25.4 µM; in test [9], over 100 µM; in test [10], over 100 µM.
With `COC(=O)C1C(C(=O)OC)C2(OC(c3ccc(Cl)cc3)=CC2=O)C12OC(c1ccc(Cl)cc1)=CC2=O` (centres undefined), the TGI in test [1] is over 100 µM; in [2] it was 34.6 µM; in [4], 41.5 µM; in test [6] it was 42 µM; in [8], 73.5 µM; in [9] it was 64.3 µM. This compound also gave a TGI in test [10] of 52.8 µM.
With `O=C1C=CC(=O)N1n1c(-c2ccccc2)n[nH]c1=O`, the TGI in test [1], in [2], in [4], in [5], in test [6] and in test [7] was over 100 µM each time. Further, the TGI in test [8], in test [9] and in [10] was over 100 µM in each case.
Take `S=C(N/N=C\C(=N/NC(=S)N1CCCCC1)c1ccccc1)N1CCCCC1`: the TGI turned out to be 5.62 µM in [1]; 3.86 µM in test [2]; 3.98 µM in test [3]; 4.86 µM in [4]; 7.87 µM in test [5]; 3.68 µM in test [6]. Further, the TGI amounted to 3.72 µM in test [8], 3.91 µM in test [9] and 3.51 µM in test [10].
On to `COc1cc(-c2n/c(=C\c3c(O)[nH]c4ccc(Cl)cc34)cc3c2=Nc2ccccc2-3)ccc1F`, for which the GI50 is 1.76 µM in test [1]; 2.28 µM in [3]; 2.03 µM in [5]; 1.98 µM in test [6]; 2.03 µM in [7]; 2.05 µM in test [8]. Further, the GI50 is 2.34 µM in test [9] and 1.78 µM in test [10]. In addition, the TGI in test [1] worked out at 3.38 µM; in [3] it was 5.01 µM; in test [5] it was 5.04 µM; in test [6] it was 4.06 µM; in test [7] it was 5.19 µM; in test [8], 4.65 µM. Moreover, the results for the TGI in test [9] and in test [10] were 5.55 µM and 3.6 µM, respectively.
On to `COC(=O)[C@@H]1CCCCC[C@H]2C(CO)=C(C)C(=O)C12` (some centres undefined), for which the TGI in test [1], in test [2], in [3], in [4], in test [7] and in [8] was over 100 µM throughout. The TGI in test [9] and in test [10] was over 100 µM throughout.
As for `O=c1c(Cc2ccc(Cl)cc2)nnc2sc(-c3ccc(-c4ccc(F)c(Cl)c4)o3)nn12`, the TGI in test [1], in test [2], in test [3], in [4], in test [5] and in test [7] was over 100 µM in each case. For the same compound, the TGI in test [8], in [9] and in [10] was over 100 µM throughout.
On to `CC1(C)OCC2OC3([C@@H]4OC(C)(C)O[C@H]4CO)OC(C)(C)OC3C2O1` (some centres undefined), for which the TGI in test [1], in [2], in test [3], in [4], in test [5] and in test [6] was over 100 µM each time. Further, the TGI in test [7], in test [9] and in test [10] was over 100 µM throughout.
Consider `C=C1C(OC2O[C@@H]3O[C@@]4(C)CC[C@H]5[C@H](C)CC[C@@H](C2=C)[C@@]35O4)O[C@@H]2O[C@@]3(C)CC[C@H]4[C@H](C)CC[C@@H]1[C@@]24O3` (some centres undefined), for which the TGI in test [1], in test [2], in [3], in test [4], in test [6] and in [8] was over 50 µM throughout. The TGI in [9] and in [10] was over 50 µM each time.
Turning to `Cc1cc(S(=O)(=O)Nc2n[nH]c(-c3ccccn3)n2)c(S)cc1Cl`, the TGI is 41.9 µM in test [1]; 90.6 µM in [2]; over 100 µM in test [3]; 27.7 µM in [4]; 35.3 µM in test [5]; 64.3 µM in test [6]. The TGI was 30.4 µM in [7], 88.3 µM in test [8] and over 100 µM in test [10].
As for `O=c1nc2c(c(-c3ccc(Br)cc3)[nH]1)COC/C2=C\c1ccc(Br)cc1`, the TGI in test [2], in test [3], in test [4], in test [5], in [6] and in test [7] was over 50 µM throughout. For the same compound, the TGI in test [8], in test [9] and in [10] was over 50 µM in each case.
`N#C/C(C(=O)Nc1ccc(Cl)cc1)=C(/N)N1CCCC1`: the TGI in test [1], in [2], in [3], in test [4], in [5] and in test [6] was over 100 µM each time. Besides, the TGI in test [7], in test [9] and in test [10] was over 100 µM each time.
On to `O=C1N=C2SC(=S)NC(=S)N2NC12c1ccccc1-c1ccccc12`, for which the TGI in test [1], in [2], in test [3], in test [4], in test [5] and in test [7] was over 10 µM throughout. In addition, the TGI in test [8] and in test [10] was over 10 µM throughout.
Take `CCc1c(CNc2ccc(C(=O)NC(CC(=O)O)C(=O)O)cc2)ccc2nc(N)nc(N)c12` (centres undefined): the TGI in test [1], in [3], in [4], in test [5], in test [6] and in test [7] was over 1000 µM each time. Also, the TGI in test [8], in [9] and in [10] was over 1000 µM each time. Also, the GI50 in test [6] was 52.8 µM.
